This experiment deals with T1, BAK (Homo sapiens, UniProt Q16611).
T1 construct: gene BAK1; BAKΔTM (lacking its transmembrane domain) for MST; BAK 15–186 for NMR
T1 sequence (Q16611 15-186): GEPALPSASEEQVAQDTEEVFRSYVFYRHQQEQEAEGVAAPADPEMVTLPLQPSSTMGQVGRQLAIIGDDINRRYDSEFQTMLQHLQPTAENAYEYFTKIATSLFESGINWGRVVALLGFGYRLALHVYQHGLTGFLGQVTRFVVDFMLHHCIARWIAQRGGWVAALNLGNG
Put plainly: microscale thermophoresis; 1H, […]-HSQC NMR titration; BAK oligomerization and liposome release as support. It counts as binding. On the technique in general: MST reads how a fluorescent partner responds to local heating, with and without ligand.

The term Kd denotes the concentration at which binding is half-saturated. Low readings indicate a tighter complex, high ones a looser complex. `CC1=NN(c2ccc(C)c(C)c2)C(=O)/C1=N\Nc1cccc(-c2cccc(C(=O)O)c2)c1O` [Eltrombopag] had a Kd of 1.2 ± 0.7 µM.

The record behind these values is publication PMC10314921, “Eltrombopag directly activates BAK and induces apoptosis” (Cell Death & Disease, 2023).
